These results are taken from patent publication US20050048508A1, “Trehalose receptor and method for detecting trehalose with the same” (KABUSHIKI KAISHA HAYASHIBARA SEIBUTSU KAGAKU KENKYUJO, priority 2002, published 2005).

For this experiment, the target named is T1, T1R2 with G protein α-subunits (α15 and α16/Z chimeric protein) (Mus musculus, UniProt Q925I4, E350G/G527D/P352R/R175Q).
T1 construct: expressed in transfected cells; host or cells: 293 cells, RCB 1637 (human embryonic kidney)
T1 sequence (Q925I4 20-843 R175Q/E350G/P352R/G527D): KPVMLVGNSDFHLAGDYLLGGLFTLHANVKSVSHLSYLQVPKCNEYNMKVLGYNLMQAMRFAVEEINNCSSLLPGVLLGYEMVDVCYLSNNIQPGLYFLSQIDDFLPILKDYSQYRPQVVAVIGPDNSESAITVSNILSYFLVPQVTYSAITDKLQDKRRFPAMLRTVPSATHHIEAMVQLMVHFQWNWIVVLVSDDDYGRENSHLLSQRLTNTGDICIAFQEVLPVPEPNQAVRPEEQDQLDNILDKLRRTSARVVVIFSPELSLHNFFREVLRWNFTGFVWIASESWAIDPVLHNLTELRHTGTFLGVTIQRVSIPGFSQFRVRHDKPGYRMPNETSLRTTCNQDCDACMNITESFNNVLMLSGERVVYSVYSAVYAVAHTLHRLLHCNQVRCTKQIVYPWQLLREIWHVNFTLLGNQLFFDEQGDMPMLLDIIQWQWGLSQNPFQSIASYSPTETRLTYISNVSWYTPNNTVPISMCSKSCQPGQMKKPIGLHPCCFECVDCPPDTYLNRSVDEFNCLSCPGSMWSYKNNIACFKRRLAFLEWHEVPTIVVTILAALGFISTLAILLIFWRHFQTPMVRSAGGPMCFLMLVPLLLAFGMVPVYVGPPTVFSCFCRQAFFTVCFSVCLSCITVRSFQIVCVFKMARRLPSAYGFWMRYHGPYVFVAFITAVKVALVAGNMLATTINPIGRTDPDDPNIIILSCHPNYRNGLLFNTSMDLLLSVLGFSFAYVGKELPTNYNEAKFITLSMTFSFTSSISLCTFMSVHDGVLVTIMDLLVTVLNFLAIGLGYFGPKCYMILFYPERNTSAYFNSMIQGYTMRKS
As to the kind of experiment: Intracellular calcium ion assay, 293 cells coexpressing G protein α-subunits and T1R2. It counts as cell-based. The note with it: 293 cells: T1R2 + G protein α-subunits; 0.67 ml of 1 M saccharide solution added to 2 ml cell suspension; FLUO-4 AM. As to the method: The coexpression vector for the G protein α-subunit α15 and the G protein α16/Z chimeric protein (hereinafter designated as “G protein α-subunits”) obtained in Example 1-3 was gene transferred to 293 cells, RCB 1637, a human embryonic kidney cell line, available from the Riken Bioresource Center, Ibaraki, Japan, by conventional lipofection. The gene transferred cells were suspended in Dulbecco's Modified Eagle's Medium (D-MEM) supplemented with 1 mg/L of “PUROMYCIN”, a trade mane of puromycin commercialized by Edge Biosystems, MD, USA, and 10% (v/v) of fetal calf serum to give a cell density of 2×10^6 cells/ml and cultured in a plastic petri dish for cell culture. […]
The captioned reactivity test was conducted according to a conventional intracellular calcium ion assay: 293 Cells prepared in Example 3, capable of coexpressing the G protein α-subunits and the sweet taste receptor(s), were cultured in a plastic petri dish for cell culture until reaching its confluent phase. […] Two milliliters of the resultant cell suspension was injected into a glass cuvette, commercialized by Hitachi, Ltd., Tokyo, Japan, and analyzed on “HITACHI 650-40”, a fluorescence spectrophotometer commercialized by Hitachi, Ltd., Tokyo, Japan. […]

As to `OC[C@H]1O[C@H](O[C@H]2O[C@H](CO)[C@@H](O)[C@H](O)[C@H]2O)[C@H](O)[C@@H](O)[C@@H]1O` [Trehalose], the “Influx of calcium ion” value is given as “Negative”.
The value for `OC[C@H]1O[C@@](CO)(O[C@H]2O[C@H](CO)[C@@H](O)[C@H](O)[C@H]2O)[C@@H](O)[C@@H]1O` [Sucrose, reference compound] was “Negative”.
